Patent US20140154182A1 (priority 2011, published 2014)

What was measured:
[1] = format: in vivo, B6C3 mice; conditions: for organ with the highest uptake: 5 min following tracer injection, blood, heart, lungs, liver, kidney; for DAR (differential absorption ratio), cerebellum / DAR (differential absorption ratio), cerebral cortex / DAR (differential absorption ratio), hippocampus / DAR (differential absorption ratio), prefrontal cortex / DAR (differential absorption ratio), striatum: 5 min post-injection, i.v.; for DAR (differential absorption ratio), cerebellum / DAR (differential absorption ratio), cerebral cortex / DAR (differential absorption ratio), hippocampus / DAR (differential absorption ratio), prefrontal cortex / DAR (differential absorption ratio), striatum / time of highest ratio of radioactivity uptake between forebrain regions and the cerebellum: mice; for clearance of radioactivity from the brain: mouse, in vivo; for time of highest ratio of radioactivity uptake between forebrain regions and the cerebellum: post-injection
Description: Male, 7-9 weeks old, B6C3 mice were used in all experiments. Animals were anaesthetized with an i.p. injection of Hypnorm/dormicum (12 ml/kg), after which [^18F]PK209 (as prepared in Example 26) (19.0±1.1 MBq at t0) or [^11C]PK083 (as prepared in Example 22) (24.4±3.5 MBq at t0) was administered via the tail vein, in a saline solution containing 10% ethanol (5 ml/kg). Following the injections, mice were killed by cervical dislocation at 5, 10, 30, or 60 min (n=4−6). At each time point, blood was obtained by heart punctures and selected organs, including the heart, liver, kidneys, lungs and brain were removed. The brain was further dissected into prefrontal cortex, striatum, cerebral cortex, hippocampus and cerebellum. All organs and brain areas were weighed, and recovered radioactivity was determined with a Compugamma (LKB Wallac), using 5×10 μl aliquots of the injected formulation as standard. Results are expressed as the differential absorption ratio (DAR): (cpm recovered/g tissue)/(cpm injected/g body weight). Two-way repeated measures ANOVA, followed by LSD post-hoc analysis was used for between-region (or organ) comparisons of radiotracer uptake at different time points.

physchem = format: physicochemical; conditions: 1-octanol / 0.2M phosphate buffer pH 7.4, room temperature, triplicate; read-out: LogDoct,7.4
Description: The distribution of the radio labeled compounds between 1-octanol and 0.2M phosphate buffer (pH=7.4) was measured in triplicate at room temperature. Briefly, 1 mL of a 20 MBq/mL solution of the radio labeled compound in 0.2M phosphate buffer (pH=7.4) was vigorously mixed with 1 mL of 1-octanol for 1 min at room temperature using a vortex. After a settling period of 30 min, five samples of 100 μL were taken from both layers. For determining recovery, 5 samples of 100 μL were taken from the 20 MBq/mL solution. All samples were counted for radioactivity. The LogDoct,7.4 value was calculated according to LogDoct,7.4=^10Log(Aoct/Abuffer), where Aoct and Abuffer represent the average radioactivity counted of the 5 1-octanol and 5 buffer samples, respectively.

NMDA receptors = assay: Ex vivo autoradiography and MK-801 blocking study; format: in vivo, mice
Description: To visualize the distribution and specificity of [^18F]PK209 or [^11C]PK083 for NMDA receptors, anaesthetized mice were injected with either saline or MK-801 (0.6 mg/kg, i.p.), 10 min before a tail-vein injection of each of the radiolabeled compounds (n=2). 5 min following injection of [^11C]PK083 or 15 min after [^18F]PK209 injection, mice were killed by cervical dislocation, and their brains were removed, frozen in liquid nitrogen and processed for quantitative autoradiography. Briefly, 20 μm coronal brain sections were cut at 300 μm intervals, from rostral to caudal areas. Sections from each mouse were opposed to Kodak Biomax MR-1 film, either immediately or following 2×30 sec washes in ice-cold Tris-HCl buffer (pH 7.4) and a dip in ice-cold demi water. Films were developed after 24 hr, and relevant optical density (ROD) values were obtained using the MCID software. Sections from control and MK-801 treated mice were processed in parallel. All brain regions were identified by reference to the mouse atlas of Franklin and Paxinos (2001).
Reference is made to FIG. 3. […] FIG. 3A the [^18F]209 specific binding (relevant optical density) is shown for (from left to right) frontal cortex, striatum, hippocampus, cerebral cortex and cerebellum. In FIG. 3B representative images are shown for (from bottom to top) cerebellum, hippocampus, striatum, cerebral cortex and frontal cortex.
Specific binding was defined as that […] pretreatment with MK-801 (0.6 mg/kg i.p.). […] Specific [^18F]PK-209 binding constituted 10% and 8% of total binding values in the hippocampus and the cerebral cortex, respectively.

NMDAR ion channel = assay: Competition binding assay against [3H]MK-801 in rat forebrain membranes; conditions: against 5 nM [3H]MK-801; mean±SEM of 2-6 independent determinations, each in triplicate
Description: Male Wistar rats (150-200 g) were killed by decapitation. The forebrains were rapidly removed and homogenized using a DUALL tissue homogenizer (10 strokes, 2000 rpm), in a 7-fold excess (v/w) of ice-cold 0.25 M sucrose. The nuclei and cell debris were removed by centrifugation (10 min x 400×g) in a Sorvall RC-6 refrigerated centrifuge (rotor SA600). The supernatant was decanted and the resulting pellet was rehomogenized in 5 vol 0.25 M sucrose and recentrifuged. The combined supernatants were diluted in Tris-acetate buffer (50 mM, pH 7.4) to a final dilution of 40 v/w, and centrifuged for 30 min×30,000×g, in order to obtain membranes from the cell surface, mitochondrial, and microsomal fractions. The pellet was resuspended in 20 vol of 50 mM Tris buffer containing 0.04% Triton X-100 (pH 7.4), and was kept at 25° C. for 2 hr before recentrifugation. The resulting pellet was suspended in Tris-HCl buffer (dilution 4, pH 7.4) and stored at −80° C. in 5 ml aliquots. On the day of each experiment, membranes were thawed to room temperature and washed twice by centrifugation (30 min×200,000×g). After the final centrifugation step, pellets were suspended in 50 mM Tris-HCl buffer (pH 7.4) and further diluted to 40 vol of buffer per g original weight wet tissue for competition binding experiments.
Protein concentration was determined using the BCA protein kit (Sigma-Aldrich, The Netherlands).
In vitro competition binding experiments were performed using 5 nM [^3H]MK-801 (specific activity 22.5 Ci/mmol; PerkinElmer, USA). All compounds as prepared in the Examples and listed in Table 2 were dissolved as 10 mM stock solutions in DMSO, and used in a concentration range from 10^−4 to 10^−12 M, with a maximal DMSO concentration of 1%. Competition binding experiments were conducted at room temperature, in a final volume of 500 μl assay buffer (50 mM Tris-HCl, pH 7.4), containing 1 μM L-glutamate and glycine. The incubation mixture was composed of 400 μl membrane suspension (protein concentration 1 μg/μL), 50 μL [^3H]MK-801, 45 μl assay buffer and 5 μl unlabeled drug solution. Nonspecific binding was determined in the presence of 30 μM GMOM. Incubations were terminated overnight by filtration, using a 48-well Brandel harvester and Whatman GF/B filters, presoaked in 0.3% polyethyleneimine. The filters were washed three times with 3 ml of ice-cold Tris-HCl buffer (pH 7.4), and radioactivity was subsequently determined by liquid scintillation spectrometry in 5 mL of Optiphase-HiSafe 3, at an efficiency of 40%.
Ki values were determined by nonlinear regression analysis using the equation: log EC50=log [10̂log Ki*(1+RadioligandNM/HotKdNM)], (GraphPad Software Inc., San Diego, Calif.).
In this table the Ki for the different compounds is stated. The Ki as measured against 5 nM [^3H]MK-801 and represent the mean±SEM Ki values of 2-6 independent determinations, each conducted in triplicate, The indexes (b), (c) and (d) describe the form in which the compound was tested: (b) fumaric acid salt, (c) free base, (d) hydrochloric acid salt.

[2] = quantitative autoradiography, relevant optical density

## CSc1ccc(Cl)c(NC(=N)N([11CH3])c2cccc(OC(F)F)c2)c1 [[^11C]PK083, 1-(2-chloro-5-(methylthio)phenyl)-3-^11C-methyl-3-(3-(difluoromethoxy)phenyl)guanidine]
[1]
  organ with the highest uptake: lungs
  DAR (differential absorption ratio), cerebellum: 0.55±0.07
  DAR (differential absorption ratio), cerebral cortex: 0.83±0.11
  DAR (differential absorption ratio), hippocampus: 1.41±0.46
  DAR (differential absorption ratio), prefrontal cortex: 0.96±0.16
  DAR (differential absorption ratio), striatum: 0.86±0.13
  clearance of radioactivity from the brain: rapidly cleared
  time of highest ratio of radioactivity uptake between forebrain regions and the cerebellum: 5 min
physchem
  logD: 1.76 ± 0.01

## CSc1ccc(Cl)c(NC(=N)N(C)c2cccc(OC[18F])c2)c1 [[^18F]PK209]
[1]
  organ with the highest uptake: lungs
  DAR (differential absorption ratio), cerebellum: 0.84±0.09
  DAR (differential absorption ratio), cerebral cortex: 1.17±0.07
  DAR (differential absorption ratio), hippocampus: 1.05±0.09
  DAR (differential absorption ratio), prefrontal cortex: 1.19±0.10
  DAR (differential absorption ratio), striatum: 1.19±0.15
  clearance of radioactivity from the brain: cleared rapidly
  time of highest ratio of radioactivity uptake between forebrain regions and the cerebellum: 15 min
physchem
  logD: 1.45 ± 0.02
NMDA receptors; 15 min after injection, MK-801 0.6 mg/kg i.p. pretreatment
  specific binding as share of total binding, cerebral cortex: 8%
NMDA receptors; [2]
  binding level, cerebellum: moderate
  binding level, cerebral cortex: high
  binding level, frontal cortex: low
  binding level, hippocampus: high
  binding level, striatum: low

## CSc1ccc(Cl)c(NC(=N)Nc2cccc(OC(F)F)c2)c1 [compound 7, 1-(2-chloro-5-(methylthio)phenyl)-3-(3-(difluoromethoxy)phenyl)guanidine]
NMDAR ion channel
  Ki: 147 ± 15 nM

## CSc1ccc(Cl)c(NC(=N)Nc2cccc(OC(F)(F)F)c2)c1 [compound 8, 1-(2-chloro-5-(methylthio)phenyl)-3-(3-(trifluoromethoxy)phenyl)guanidine]
NMDAR ion channel
  Ki: 235 ± 55.5 nM

## COc1cccc(N(C)C(=N)Nc2cc(SC)ccc2Cl)c1 [compound 14, reference compound]
NMDAR ion channel
  Ki: 21.7 ± 2.2 nM

## CSc1ccc(Cl)c(NC(=N)N(C)c2cccc(O)c2)c1 [compound 17, 3-(2-chloro-5-(methylthio)phenyl)-1-(3-hydroxyphenyl)-1-methylguanidine]
NMDAR ion channel
  Ki: 551 ± 57.8 nM

## CSc1ccc(Cl)c(NC(=N)N(C)c2cccc(OC(F)F)c2)c1 [compound 18, 3-(2-chloro-5-(methylthio)phenyl)-1-(3-(difluoromethoxy)phenyl)-1-methylguanidine]
NMDAR ion channel
  Ki: 10 ± 2 nM

## CSc1ccc(Cl)c(NC(=N)N(C)c2cccc(OC(F)(F)F)c2)c1 [compound 19, 3-(2-chloro-5-(methylthio)phenyl)-1-methyl-1-(3-(trifluoromethoxy)phenyl)guanidine]
NMDAR ion channel
  Ki: 12 ± 2 nM

## CSc1ccc(Cl)c(NC(=N)N(C)c2cccc(OC(F)(F)C(F)F)c2)c1 [compound 20, 3-(2-chloro-5-(methylthio)phenyl)-1-methyl-1-(3-(1,1,2,2-tetrafluoroethoxy)phenyl)guanidine]
NMDAR ion channel
  Ki: 56.7 ± 6.2 nM

## CSc1ccc(Cl)c(NC(=N)N(C)c2cccc(OCCCF)c2)c1 [compound 23, 3-(2-chloro-5-(methylthio)phenyl)-1-(3-(3-fluoropropoxy)phenyl)-1-methylguanidine]
NMDAR ion channel
  Ki: 179 ± 39 nM
